The source of these data is ChEMBL document CHEMBL1128798, “The in vitro cytotoxicity and DNA alkylating ability of the simplest functional analogues of the seco CC-1065 alkylating subunit” (Bioorg Med Chem Lett, 1995).

In one assay the test system is HeLa. Briefly: Tested in vitro for cytotoxicity against He La cell line in human cervical carcinoma. The format is functional.
The next assay deals with MM96L. Briefly: Tested in vitro for cytotoxicity against MM96L cell line in human melanoma. It counts as functional.
Another assay concerns CI80-13S cell line. Briefly: Tested in vitro for cytotoxicity against CI80-13S cell line in DNA cross-linking resistant human ovarian carcinoma. It counts as functional.
The test system of the next assay is MM418. Description: Tested in vitro for cytotoxicity against MM418c15a cell line in human melanoma with high melanin content. The format is functional.
The test system of another assay is Nucleic Acid. Description: Compound was tested in vitro for DNA alkylation intensity; value is given as. The format is functional.
The subject of assay [1] is B16. Description: Tested in vitro for cytotoxicity against B16 cell line in murine melanoma. The format is functional, Mus musculus.
Assay [2] concerns B16. Description: Tested in vitro for cytotoxicity against B16 cell line in murine melanoma activity expressed in IC50. The format is functional, cell-based. The settings on record: Mus musculus.

As to `Oc1ccc(CCCl)cc1`, the figures for the Cytotoxicity in the assay with HeLa and with MM96L were 32 µM and 42 µM, respectively.

Turning to `CS(C)(=O)=O` [DIMETHYL SULFONE], the Cytotoxicity with CI80-13S cell line turned out to be 59 µM; in the assay with HeLa it was 35 µM; in the assay with MM418, 58 µM; with MM96L it was 56 µM.

In the case of `COc1ccc(CCI)cc1`, the Cytotoxicity with HeLa came out at 22 µM; in the assay on MM96L it was 25 µM.

As for `OCCc1cccc(O)c1`, the Cytotoxicity with HeLa was determined as 7530 µM; with MM96L, 2530 µM.

With `COc1ccc(CCO)cc1`, the Cytotoxicity in the assay on HeLa worked out at 4420 µM; in the assay on MM96L it was 3330 µM.

As to `COc1ccc(CCCl)cc1`, the Cytotoxicity in the assay on HeLa amounted to 670 µM; in the assay on MM96L, 1970 µM.

Consider `Oc1cccc(CCBr)c1`, for which the Cytotoxicity in the assay with HeLa came to 75 µM; with MM96L, 60 µM.

As to `COc1ccc(CCBr)cc1`, the Cytotoxicity was 220 µM with HeLa and 520 µM with MM96L.

In the case of `Oc1cccc(CCCl)c1`, the Cytotoxicity in the assay with HeLa and with MM96L was 450 µM throughout.

Take `Oc1ccc(CCI)cc1`: the DNA alkylation entry in the assay on Nucleic Acid is reported as “value is given as”. Moreover, the results for the Cytotoxicity in the assay with HeLa and in the assay on MM96L were 33 µM and 43 µM, respectively.

Turning to `OCCc1ccc(O)cc1` [TYROSOL], the results for the Cytotoxicity in the assay with HeLa and in the assay on MM96L were 1420 µM and 905 µM, respectively.

In the case of `Oc1cccc(CCI)c1`, the Cytotoxicity in the assay on HeLa was 19 µM; in the assay with MM96L, 20 µM.

As usually defined, the IC50 is the point on the concentration scale where inhibition reaches its midpoint. A higher IC50 goes with weaker potency. As for `Oc1ccc(CCBr)cc1`, the Cytotoxicity amounted to 44 µM in the assay with B16 [1]; 27 µM with CI80-13S cell line; 18 µM in the assay with HeLa; 25 µM with MM418; 16 µM in the assay with MM96L. In addition, inhibition with B16 [2] was half-maximal at 32 µM (IC50). Further, the DNA alkylation result in the assay with Nucleic Acid was “value is given as”.
